Patent publication US20120219613A1 (priority 2009, published 2012)
pIC50: −log10 of the molar value.

Key:
Ebola = test: microbe, parasite or virus in culture; assay type: cell-based; details: Zaire ebolavirus, read-out: Activity
Marburg = test: organism not typed; assay type: cell-based, Musoke/Ravn; details: read-out: Activity
Influenza A = test: microbe, parasite or virus in culture; assay type: cell-based, WSN H1N1; details: read-out: Activity
Junín = test: organism not typed; assay type: cell-based; details: read-out: Activity
Rift Valley Fever = test: organism not typed; assay type: cell-based; details: read-out: Activity
LaCrosse = test: organism not typed; assay type: cell-based; details: read-out: Activity
Nipah = test: organism not typed; assay type: cell-based, Malaysia
Omsk = test: organism not typed; assay type: cell-based, Omsk Hemorrhagic Fever, Guriev; details: read-out: Activity
RSSE = test: organism not typed; assay type: cell-based, Russian Spring Summer Encephalitis, Sofiin; details: read-out: Activity
PIV-5 = test: organism not typed; assay type: cell-based; details: read-out: Activity
HPIV-3 = test: microbe, parasite or virus in culture; assay type: cell-based; details: Human respirovirus 3, read-out: Activity
NDV = assay type: cell-based, Newcastle Disease, rNDV/F3aa-GFP
HIV-1 = test: microbe, parasite or virus in culture; assay type: cell-based; details: Human immunodeficiency virus 1, read-out: Activity
Murine Leukemia = test: cells; assay type: cell-based, F57; details: Mus musculus, read-out: Activity
Yellow Fever = test: organism not typed; assay type: cell-based, Asibi; details: read-out: Activity
Hepatitis C Virus = test: microbe, parasite or virus in culture; assay type: cell-based; details: read-out: Activity
West Nile Virus = test: microbe, parasite or virus in culture; assay type: cell-based; details: read-out: Activity
Vesicular = test: microbe, parasite or virus in culture; assay type: cell-based, Vesicular Stomatitis, Indiana
Cowpox = test: organism not typed; assay type: cell-based, Brighton; details: read-out: Activity
Vaccinia = test: microbe, parasite or virus in culture; assay type: cell-based, VTF1.1; details: Orthopoxvirus vaccinia, read-out: Activity
Adenovirus = test: microbe, parasite or virus in culture; assay type: cell-based; details: unidentified adenovirus, read-out: Activity
Coxsackie B = test: organism not typed; assay type: cell-based; details: read-out: Activity
Reovirus = test: microbe, parasite or virus in culture; assay type: cell-based; details: Reovirus sp., read-out: Activity
NiV-pVSV [1] = test: microbe, parasite or virus in culture; assay type: cell-based, Nipah virus envelope pseudotyped onto VSV
VSV-G pseudotyped VSV = assay type: cell-based, Vesicular Stomatitis virus
VSV transcription = assay type: biochemical, VSV-Indiana
live VSV and NiV-pVSV = assay type: cell-based
[2] = tested on: Vero cells infected with pVSV; assay type: cell-based
pVSV = assay type: cell-based
Vero cells [3] = assay type: cell-based
NiV-pVSV [4] = assay type: cell-based
RVFV MP-12 = assay type: cell-based, Rift Valley fever virus
[5] = tested on: NiV-pseudotyped pVSV binding to ephrinB2; assay type: cell-based
NiV VLPs = assay type: cell-based, Nipah virus
[6] = tested on: NiV envelope mediated cell-cell fusion; assay type: cell-based
HIV-1 (JRCSF) = assay type: cell-based
Vero cells [7] = tested on: Vero cells
Vero cells [8] = tested on: Vero cells; remark: listed apart in the source
[9] = mouse, in vivo
[10] = male, Sprague-Dawley, rat, in vivo
in vivo = details: male, Sprague-Dawley, rat, ip

C=CCN1C(=O)/C(=C/c2ccc(-c3ccccc3)o2)SC1=S [LJ-001, (Z)-3-Allyl-5-(5-phenyl-2-furyl)methylene-4-oxothiazolidine-2-thione]
pIC50 (Ebola): 6.00 to 6.30 | pIC50 (Marburg): 6.00 to 6.30 | pIC50 (Influenza A): > 6.30 | pIC50 (Junín): 6.00 to 6.30 | pIC50 (Rift Valley Fever): > 6.30 | pIC50 (LaCrosse): > 6.30 | infection and infectious spread of live NiV (Nipah): inhibit infection and infectious spread | pIC50 (Nipah; read-out: Activity): 6.00 to 6.30 | pIC50 (Omsk): 6.00 to 6.30 | pIC50 (RSSE): 6.00 to 6.30 | pIC50 (PIV-5): 6.00 to 6.30 | pIC50 (HPIV-3): 6.00 to 6.30 | pIC50 (NDV): 6.00 to 6.30 | pIC50 (HIV-1): 6.00 to 6.30 | pIC50 (Murine Leukemia): 6.00 to 6.30 | pIC50 (Yellow Fever): > 6.30 | pIC50 (Hepatitis C Virus): > 6.30 | pIC50 (West Nile Virus): > 6.30 | infection and infectious spread of live VSV (Vesicular): inhibit infection and infectious spread | pIC50 (Vesicular; Vesicular stomatitis virus, read-out: Activity): 6.00 to 6.30 | pIC50 (Cowpox): 5.30 to 6.00 | pIC50 (Vaccinia): 6.00 to 6.30 | pIC50 (Adenovirus): < 5.00 | pIC50 (Coxsackie B): < 5.00 | pIC50 (Reovirus): < 5.00 | effect of pre-treatment temperature and duration on antiviral activity (NiV-pVSV [1]): no significant effect | reporter virus entry via Nipah virus envelope (NiV-F/G) (NiV-pVSV [1]): inhibited reporter virus entry | pIC50 (NiV-pVSV [1]; Vesicular stomatitis virus, Vero, read-out: in vitro IC50 concentrations): ~6.00 | reporter virus entry via Vesicular Stomatitis virus envelope proteins (VSV-G) (VSV-G pseudotyped VSV): inhibited reporter virus entry | viral transcription, mRNA production, and mRNA capping of VSV (VSV transcription): unaffected | infectivity of treated virus after 4 h PBS wash and secondary repurification (live VSV and NiV-pVSV): remained non-infectious | infectivity of treated virus after washing and repurification (live VSV and NiV-pVSV): non-infectious | inhibitory effect after washing pre-treated target cells [2]: Washing the cells reversed the inhibitory effect | inhibitory effect versus time of addition (pVSV): apparent only when the compound was added before or during, but not after, the viral infection period | intercalation into cellular membranes (Vero cells [3]): dose-dependent increase in fluorescence | effect of compound pre-incubated with saturating liposomes on viral infection (NiV-pVSV [4]): no effect on viral infection | effect of excess liposomes, virus pre-exposed to compound (NiV-pVSV [4]): no longer able to rescue viral infection | effect of liposome size on binding or reversal of inhibition (NiV-pVSV [4]): no effect | effect of liposomes, virus and liposomes simultaneously subjected to compound (NiV-pVSV [4]): competed off virus infection | virion membrane morphology by EM (pVSV particles): significant distortion of the viral membrane | infectivity of gradient fractions (RVFV MP-12): completely non-infectious | reduction in infectivity (RVFV MP-12): ≥ 5 log | virus-cell binding [5]: still bound cognate cell surface receptors | cytoplasmic delivery of beta-lactamase matrix fusion protein (NiV VLPs): inhibited cytoplasmic delivery | NiV envelope mediated cell-cell fusion [6]: did not inhibit | sensitivity of passaged virus to compound (HIV-1 (JRCSF)): no evidence of decreased sensitivity | toxic effects in AK and LD enzyme release assays (Vero cells [7]): little to no toxic effects | active cell metabolism (Alamar Blue uptake) (Vero cells [8]): no effect on active cell metabolism | complete blood counts with differential [9]: no difference relative to the vehicle control group | hematocrit and hemoglobin levels [9]: normal | liver function tests, kidney function tests, serum electrolytes [9]: all normal and equivalent to the vehicle control mice | serum cholesterol levels [9]: statistically significant elevation | serum metabolites (glucose, phosphate, triglycerides) [9]: normal | weight loss [9]: < 10% | peak serum concentration, 20 mg/kg group versus 50 mg/kg group [10]: higher peak serum concentration than the 50 mg/kg group | time until serum levels approach in vitro IC50 concentrations ([10]; ip): about 2 hours | half-life (in vivo): ~4 h
